In PubChem BioAssay (NCI):
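Cultured in 96-well plates, cells were exposed to test compound for 48 hours across five concentrations. TGI marks complete inhibition of growth.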

How the values were obtained:
Assay in all cases: NCI tumour cell line growth inhibition, 48 h
786-0 renal = tested on: 786-0 renal
A498 renal = tested on: A498 renal
A549 NSCLC = tested on: A549 NSCLC
ACHN renal = tested on: ACHN renal
CAKI-1 renal = tested on: CAKI-1 renal
CCRF-CEM leukemia = tested on: CCRF-CEM leukemia
COLO 205 colon = tested on: COLO 205 colon
DLD-1 colon = tested on: DLD-1 colon
DMS 114 small cell lung = tested on: DMS 114 small cell lung
DMS 273 small cell lung = tested on: DMS 273 small cell lung
EKVX NSCLC = tested on: EKVX NSCLC
HCC-2998 colon = tested on: HCC-2998 colon
HCT-116 colon = tested on: HCT-116 colon
HCT-15 colon = tested on: HCT-15 colon
HL-60(TB) leukemia = tested on: HL-60(TB) leukemia
HOP-18 NSCLC = tested on: HOP-18 NSCLC
HOP-92 NSCLC = tested on: HOP-92 NSCLC
HT29 colon = tested on: HT29 colon
IGROV1 ovarian = tested on: IGROV1 ovarian
K-562 leukemia = tested on: K-562 leukemia
KM12 colon = tested on: KM12 colon
KM20L2 colon = tested on: KM20L2 colon
LOX IMVI melanoma = tested on: LOX IMVI melanoma
LXFL 529 NSCLC = tested on: LXFL 529 NSCLC
M14 melanoma = tested on: M14 melanoma
M19-MEL melanoma = tested on: M19-MEL melanoma
MALME-3M melanoma = tested on: MALME-3M melanoma
MOLT-4 leukemia = tested on: MOLT-4 leukemia
NCI-H226 lung = tested on: NCI-H226 lung
NCI-H23 lung = tested on: NCI-H23 lung
NCI-H460 lung = tested on: NCI-H460 lung
NCI-H522 lung = tested on: NCI-H522 lung
OVCAR-3 ovarian = tested on: OVCAR-3 ovarian
OVCAR-4 ovarian = tested on: OVCAR-4 ovarian
OVCAR-5 ovarian = tested on: OVCAR-5 ovarian
OVCAR-8 ovarian = tested on: OVCAR-8 ovarian
RXF-631 renal = tested on: RXF-631 renal
SF-268 CNS = tested on: SF-268 CNS
SF-295 CNS = tested on: SF-295 CNS
SF-539 CNS = tested on: SF-539 CNS
SK-MEL-2 melanoma = tested on: SK-MEL-2 melanoma
SK-MEL-28 melanoma = tested on: SK-MEL-28 melanoma
SK-MEL-5 melanoma = tested on: SK-MEL-5 melanoma
SK-OV-3 ovarian = tested on: SK-OV-3 ovarian
SN12C renal = tested on: SN12C renal
SNB-19 CNS = tested on: SNB-19 CNS
SNB-75 CNS = tested on: SNB-75 CNS
SNB-78 CNS = tested on: SNB-78 CNS
SR leukemia = tested on: SR leukemia
SW-620 colon = tested on: SW-620 colon
TK-10 renal = tested on: TK-10 renal
U251 CNS = tested on: U251 CNS
UACC-257 melanoma = tested on: UACC-257 melanoma
UACC-62 melanoma = tested on: UACC-62 melanoma
UO-31 renal = tested on: UO-31 renal
HOP-62 NSCLC = tested on: HOP-62 NSCLC
RPMI-8226 leukemia = tested on: RPMI-8226 leukemia
XF 498 CNS = tested on: XF 498 CNS

## COC(=O)C1CC2c3c(c4ccccc4n3C)CC(C1=O)N2C (stereo unspecified)
786-0 renal
  TGI: > 100 µM
A498 renal
  TGI: > 100 µM
A549 NSCLC
  TGI: > 100 µM
ACHN renal
  TGI: > 100 µM
CAKI-1 renal
  TGI: > 100 µM
CCRF-CEM leukemia
  TGI: > 100 µM
COLO 205 colon
  TGI: 32.5 µM
DLD-1 colon
  TGI: > 100 µM
DMS 114 small cell lung
  TGI: 60.7 µM
DMS 273 small cell lung
  TGI: 43.6 µM
EKVX NSCLC
  TGI: > 100 µM
HCC-2998 colon
  TGI: > 100 µM
HCT-116 colon
  TGI: 92.8 µM
HCT-15 colon
  TGI: 50.7 µM
HL-60(TB) leukemia
  TGI: 68.5 µM
HOP-18 NSCLC
  TGI: > 100 µM
HOP-92 NSCLC
  TGI: > 100 µM
HT29 colon
  TGI: > 100 µM
IGROV1 ovarian
  TGI: > 100 µM
K-562 leukemia
  TGI: > 100 µM
KM12 colon
  TGI: > 100 µM
KM20L2 colon
  TGI: > 100 µM
LOX IMVI melanoma
  TGI: > 100 µM
LXFL 529 NSCLC
  TGI: > 100 µM
M14 melanoma
  TGI: > 100 µM
M19-MEL melanoma
  TGI: > 100 µM
MALME-3M melanoma
  TGI: > 100 µM
MOLT-4 leukemia
  TGI: > 100 µM
NCI-H226 lung
  TGI: > 100 µM
NCI-H23 lung
  TGI: > 100 µM
NCI-H460 lung
  TGI: > 100 µM
NCI-H522 lung
  TGI: 34.8 µM
OVCAR-3 ovarian
  TGI: > 100 µM
OVCAR-4 ovarian
  TGI: > 100 µM
OVCAR-5 ovarian
  TGI: > 100 µM
OVCAR-8 ovarian
  TGI: > 100 µM
RXF-631 renal
  TGI: > 100 µM
SF-268 CNS
  TGI: > 100 µM
SF-295 CNS
  TGI: > 100 µM
SF-539 CNS
  TGI: > 100 µM
SK-MEL-2 melanoma
  TGI: > 100 µM
SK-MEL-28 melanoma
  TGI: > 100 µM
SK-MEL-5 melanoma
  TGI: > 100 µM
SK-OV-3 ovarian
  TGI: > 100 µM
SN12C renal
  TGI: > 100 µM
SNB-19 CNS
  TGI: > 100 µM
SNB-75 CNS
  TGI: > 100 µM
SNB-78 CNS
  TGI: > 100 µM
SR leukemia
  TGI: 87.6 µM
SW-620 colon
  TGI: > 100 µM
TK-10 renal
  TGI: > 100 µM
U251 CNS
  TGI: > 100 µM
UACC-257 melanoma
  TGI: > 100 µM
UACC-62 melanoma
  TGI: > 100 µM
UO-31 renal
  TGI: 69 µM

## Clc1ccc(OCc2nnc3n2N=C(c2ccccc2)CS3)cc1
786-0 renal
  TGI: 30.2 µM
A549 NSCLC
  TGI: 35.1 µM
ACHN renal
  TGI: 37.5 µM
CAKI-1 renal
  TGI: 61.8 µM
COLO 205 colon
  TGI: 30.8 µM
DLD-1 colon
  TGI: 44 µM
DMS 273 small cell lung
  TGI: 30.5 µM
HCC-2998 colon
  TGI: 32.1 µM
HCT-116 colon
  TGI: 23.3 µM
HCT-15 colon
  TGI: 31 µM
HL-60(TB) leukemia
  TGI: 30.4 µM
HOP-62 NSCLC
  TGI: 34.8 µM
HOP-92 NSCLC
  TGI: 36.7 µM
HT29 colon
  TGI: 29.8 µM
IGROV1 ovarian
  TGI: 23.5 µM
K-562 leukemia
  TGI: 42.8 µM
KM12 colon
  TGI: 31.6 µM
KM20L2 colon
  TGI: 30.6 µM
LOX IMVI melanoma
  TGI: 30.8 µM
LXFL 529 NSCLC
  TGI: 40.7 µM
M14 melanoma
  TGI: 41 µM
M19-MEL melanoma
  TGI: 33.1 µM
MALME-3M melanoma
  TGI: 34.5 µM
MOLT-4 leukemia
  TGI: 62.5 µM
NCI-H226 lung
  TGI: 39.9 µM
NCI-H23 lung
  TGI: 25.2 µM
NCI-H460 lung
  TGI: 30.5 µM
NCI-H522 lung
  TGI: 36.5 µM
OVCAR-3 ovarian
  TGI: 32.4 µM
OVCAR-4 ovarian
  TGI: 30.6 µM
OVCAR-5 ovarian
  TGI: 36.1 µM
OVCAR-8 ovarian
  TGI: 27.3 µM
RPMI-8226 leukemia
  TGI: 32.7 µM
RXF-631 renal
  TGI: 31.1 µM
SF-268 CNS
  TGI: 39.9 µM
SF-295 CNS
  TGI: 36.7 µM
SF-539 CNS
  TGI: 33.3 µM
SK-MEL-2 melanoma
  TGI: 34.4 µM
SK-MEL-28 melanoma
  TGI: 38.2 µM
SK-OV-3 ovarian
  TGI: 44.7 µM
SN12C renal
  TGI: 25.8 µM
SNB-19 CNS
  TGI: 46.3 µM
SNB-75 CNS
  TGI: 85.7 µM
SR leukemia
  TGI: 29.5 µM
SW-620 colon
  TGI: 32.9 µM
TK-10 renal
  TGI: 53.4 µM
U251 CNS
  TGI: 31.9 µM
UACC-257 melanoma
  TGI: 29.3 µM
UACC-62 melanoma
  TGI: 28.4 µM
UO-31 renal
  TGI: 20.8 µM
XF 498 CNS
  TGI: 30.9 µM
